# Laboratory results taken from patent US12139458B2, “(2,5-dioxopyrrolidin-1-yl)(phenyl)-acetamide derivatives and their use in the treatment of neurological diseases” (UNIWERSYTET JAGIELLONSKI, priority 2019, dated 2024).
# Assays:
# P-glycoprotein (Pgp) = target: T1, P-glycoprotein (Pgp) (Homo sapiens, UniProt P08183); assay: Pgp-Glo Assay System (Pgp activity); assay type: in vitro ADME
# T1 construct: purchased Promega (Madison, WI, USA)
# Excerpt: Impact on Pgp activity. P-glycoprotein (Pgp) is an integral plasma membrane protein that, as an ATP-dependent […] pump, actively removes xenobiotics and can cause drug interactions. Pgp plays an important role in the absorption of drugs in the gastrointestinal tract and also through the blood-brain barrier. A commercial bioluminescent Pgp-Glo™ Assay System test (Promega, Madison, WI, USA) was used to study the effect of compound 6 on Pgp activity. The operation of the test is based on measuring changes in the level of ATP consumed by membranes containing the recombinant Pgp protein in the presence of test compounds. The results were presented as % of baseline activity and compared to reference compounds: selective Pgp inhibitor Na3VO4 and verapamil stimulator.
# Impact on Pgp activity—methodology. The tests were performed according to the protocol of the bioluminescent Pgp-Glo™ Assay System test provided by the Promega company (Madison, WI, USA). […] Bioluminescence was measured with a PerkinElmer multispecific EnSpire plate reader (Waltham, MA USA). […] The calculated difference between the luminescence values of the inhibitor-treated sample and the control sample was taken as 100% of the Pgp base activity and treated as a negative control in the test. […] Statistical significance was calculated by one-way ANOVA variance analysis and the Bonferroni method using GraphPad Prism 5. […]
# TRPV1 receptor (VR1) (h) = TRPV1 receptor (VR1) (h) (Homo sapiens, UniProt Q8NER1); assay: TRPV1 receptor functional study (antagonist effect); assay type: cell-based; details: human recombinant cells (CHO), read-out: % Inhibition of agonist control responses, TRPV1 receptor (antagonist effect)
# Chain of TRPV1 receptor (VR1) (h) (Q8NER1 whole entry): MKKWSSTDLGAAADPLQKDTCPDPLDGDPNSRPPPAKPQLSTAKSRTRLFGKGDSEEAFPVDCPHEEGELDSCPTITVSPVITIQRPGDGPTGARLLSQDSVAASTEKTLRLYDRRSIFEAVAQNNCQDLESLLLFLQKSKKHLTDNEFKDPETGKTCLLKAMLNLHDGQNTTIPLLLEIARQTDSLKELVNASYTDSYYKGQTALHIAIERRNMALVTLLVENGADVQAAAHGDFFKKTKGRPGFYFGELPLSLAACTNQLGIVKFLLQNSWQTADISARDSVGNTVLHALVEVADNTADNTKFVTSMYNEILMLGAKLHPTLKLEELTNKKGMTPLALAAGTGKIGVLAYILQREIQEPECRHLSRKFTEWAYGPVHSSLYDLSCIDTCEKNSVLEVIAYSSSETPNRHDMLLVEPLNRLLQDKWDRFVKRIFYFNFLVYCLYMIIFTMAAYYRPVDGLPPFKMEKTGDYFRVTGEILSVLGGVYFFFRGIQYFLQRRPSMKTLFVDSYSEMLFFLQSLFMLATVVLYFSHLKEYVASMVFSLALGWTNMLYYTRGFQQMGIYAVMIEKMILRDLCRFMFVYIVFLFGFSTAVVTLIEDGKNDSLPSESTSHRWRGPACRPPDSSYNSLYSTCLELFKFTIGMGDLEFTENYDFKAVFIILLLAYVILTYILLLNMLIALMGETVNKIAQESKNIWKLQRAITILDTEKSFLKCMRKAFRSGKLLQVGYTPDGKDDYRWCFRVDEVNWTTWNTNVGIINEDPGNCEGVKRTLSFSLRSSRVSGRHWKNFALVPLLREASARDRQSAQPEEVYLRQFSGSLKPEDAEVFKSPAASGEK
# Excerpt: (§1) A unique feature of the compound 6 representing compounds of formula (II) according to the invention is the inhibition of calcium currents by blocking the transient receptor potential vanilloid type 1 (TRPV1). This effect has not been disclosed for known AEDs. TRPV1 receptor antagonism may determine the antinociceptive effect of the compounds disclosed herein. The role of the TRPV1 receptor in conduction of pain stimuli has been well documented in specialist literature (Szallasi, A.; Cortright, D. N.; Blum, C. A.; Eid, S. R. Nat. Rev. Drug. Discov. 2007, 6, 357-372). The compounds according to the invention are characterized by a complex mechanism of action, which is not described for known anticonvulsants. It should be emphasized, however, that further in vitro studies may reveal further molecular targets responsible for the pharmacological action of substances being the subject of current patent claim. The results of binding studies (sodium channel, calcium channel) and functional tests (TRPV1 receptor) for compound 6 are shown in Table 3.
# Na+ channel (site 2) = Na+ channel (site 2) affinity study; assay type: binding; details: rat cerebral cortex
# Excerpt: as §1
# CYP2D6 = target: T2, CYP2D6 (Homo sapiens, UniProt P10635); assay: CYP2D6 P450-Glo luminescence test; assay type: in vitro ADME; details: 10 μM
# T2 construct: purchased Promega (Madison, WI, USA)
# T2 sequence (P10635 whole entry): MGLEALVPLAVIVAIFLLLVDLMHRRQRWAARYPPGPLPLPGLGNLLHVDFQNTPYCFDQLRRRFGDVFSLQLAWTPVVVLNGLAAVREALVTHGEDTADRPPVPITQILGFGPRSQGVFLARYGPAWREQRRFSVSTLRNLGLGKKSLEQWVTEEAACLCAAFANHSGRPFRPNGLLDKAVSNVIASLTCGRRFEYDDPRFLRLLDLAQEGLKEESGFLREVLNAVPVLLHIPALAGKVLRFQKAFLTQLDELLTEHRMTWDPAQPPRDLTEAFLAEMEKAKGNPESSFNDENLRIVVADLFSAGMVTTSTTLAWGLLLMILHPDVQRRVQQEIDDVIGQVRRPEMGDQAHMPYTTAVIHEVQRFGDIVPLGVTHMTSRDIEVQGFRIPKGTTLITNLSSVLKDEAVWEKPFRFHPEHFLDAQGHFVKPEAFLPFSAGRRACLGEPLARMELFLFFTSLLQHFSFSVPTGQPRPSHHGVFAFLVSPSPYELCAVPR
# Method: Effect of compound 6 on cytochrome P-450 3A4 and 2D6 activity. The research was conducted using commercial luminescence tests CYP3A4 P450-Glo™ and CYP2D6 P450-Glo™ from Promega (Madison, WI, USA) based on the methodology described in the literature (Socała, K.; Mogilski, S.; Pieróg, M.; Nieoczym, D.; Abram, M.; Szulczyk, B.; Lubelska, A.; Latacz, G.; Doboszewska, U.; Wlaź, P.; Kamiński, K. ACS Chem. Neurosci. 2018, doi: 10.1021/acschemneuro.8b00476; Latacz, G.; Lubelska, A.; Jastrzȩbska-Wiȩek, M.; Partyka, A.; Sobato, A.; Olejarz, A.; Kucwaj-Brysz, K.; Satata, G.; Bojarski, A. J.; Wesołowska, A.; Kieć-Kononowicz, K.; Handzlik, J. Chem. Biol. Drug. Des. 2017, 90, 1295-1306). The CYP isoforms selected for study are responsible for the metabolism of approximately 40-50% of the drugs available on the market, and their stimulation or inhibition determines the majority of metabolic drug interactions. […] In summary, the results obtained indicate a low probability of potential metabolic interactions caused by 6.
# [1] = test system: Ca2+ channel type L (dihydropyridine binding site); assay: Ca2+ channel type L (dihydropyridine binding site) affinity study; details: rat cerebral cortex
# Excerpt: as §1
# [2] = test system: Ca2+ channel type L (diltiazem binding site); assay: Ca2+ channel type L (diltiazem binding site) affinity study; details: 100 μM, rat cerebral cortex
# Excerpt: as §1
# T1 sequence (P08183 whole entry): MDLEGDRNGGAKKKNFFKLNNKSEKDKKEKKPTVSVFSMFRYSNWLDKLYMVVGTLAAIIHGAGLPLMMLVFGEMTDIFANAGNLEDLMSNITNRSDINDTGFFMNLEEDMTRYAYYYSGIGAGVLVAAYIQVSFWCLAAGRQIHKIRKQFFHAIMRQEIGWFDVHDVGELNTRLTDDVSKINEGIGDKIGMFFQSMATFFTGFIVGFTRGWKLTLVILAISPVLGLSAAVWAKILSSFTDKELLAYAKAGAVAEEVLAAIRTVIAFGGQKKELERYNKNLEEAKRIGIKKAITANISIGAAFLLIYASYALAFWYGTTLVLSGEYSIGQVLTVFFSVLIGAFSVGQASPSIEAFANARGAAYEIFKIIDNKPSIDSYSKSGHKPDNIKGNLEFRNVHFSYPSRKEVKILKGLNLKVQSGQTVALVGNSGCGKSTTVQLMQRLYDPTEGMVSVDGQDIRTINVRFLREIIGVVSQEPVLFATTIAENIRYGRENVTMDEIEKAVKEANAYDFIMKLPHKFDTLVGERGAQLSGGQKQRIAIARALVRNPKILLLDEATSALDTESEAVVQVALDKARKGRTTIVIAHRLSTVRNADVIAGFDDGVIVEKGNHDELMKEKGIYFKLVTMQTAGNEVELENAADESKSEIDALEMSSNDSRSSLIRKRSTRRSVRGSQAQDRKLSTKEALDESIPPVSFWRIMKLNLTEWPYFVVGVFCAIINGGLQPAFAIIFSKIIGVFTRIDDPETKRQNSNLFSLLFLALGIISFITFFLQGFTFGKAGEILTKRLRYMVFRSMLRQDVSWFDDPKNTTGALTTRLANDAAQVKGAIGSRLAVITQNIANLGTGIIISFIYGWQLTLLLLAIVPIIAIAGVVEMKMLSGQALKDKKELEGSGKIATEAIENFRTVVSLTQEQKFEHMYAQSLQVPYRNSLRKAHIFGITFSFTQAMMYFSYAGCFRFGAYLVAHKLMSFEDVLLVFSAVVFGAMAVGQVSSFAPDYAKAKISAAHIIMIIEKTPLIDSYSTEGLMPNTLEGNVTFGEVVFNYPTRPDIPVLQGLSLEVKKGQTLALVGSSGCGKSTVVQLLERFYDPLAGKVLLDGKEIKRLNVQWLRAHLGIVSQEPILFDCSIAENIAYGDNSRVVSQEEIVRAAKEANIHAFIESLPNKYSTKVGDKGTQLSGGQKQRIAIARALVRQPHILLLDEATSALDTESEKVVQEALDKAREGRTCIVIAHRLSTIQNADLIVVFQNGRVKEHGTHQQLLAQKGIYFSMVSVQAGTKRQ
smiles,measurement,setting,value
"O=C(C(c1ccccc1)N1C(=O)CCC1=O)N1CCN(c2cccc(C(F)(F)F)c2)CC1 (racemic) [Compound 6, 1-(2-Oxo-1-phenyl-2-(4-(3-(trifluoromethyl)phenyl)piperazin-1-yl)ethyl)pyrrolidine-2,5-dione]",effect on Pgp activity,P-glycoprotein (Pgp); 50 μM,no effect on Pgp activity
same,"Pgp activity, % of baseline activity","P-glycoprotein (Pgp); 100 μM, inhibitory effect, p<0.01",38%
same,inhibition at 100 µM,TRPV1 receptor (VR1) (h),71.7%
same,"Inhibition of specific control binding, Na+ channel (site 2)",Na+ channel (site 2); 10 μM,33.4 (10) %
same,"Inhibition of specific control binding, Na+ channel (site 2)",Na+ channel (site 2); 100 μM,82.5 (100) %
same,effect on CYP2D6 activity,CYP2D6,very weak stimulating effect
same,"Inhibition of specific control binding, Ca2+ channel type L (dihydropyridine binding site)",[1]; 10 μM,30.8 (10) %
same,"Inhibition of specific control binding, Ca2+ channel type L (dihydropyridine binding site)",[1]; 100 μM,82.3 (100) %
same,"Inhibition of specific control binding, Ca2+ channel type L (diltiazem binding site)",[2],69.6 (100) %
